In PubChem BioAssay AID248 (DTP/NCI, 2004):
Inconclusive results and toxic doses are left out. Cut-off read from the data, not from the text of the source: active = T/C of 150% or more; inactive = T/C below 125%.

Tested on: L1210 leukemia ip in BDF1 mice, survival T/C
Test: NCI In Vivo Anticancer Drug Screen. Data for tumor model L1210 Leukemia (intraperitoneal) in B6D2F1 (BDF1) mice
Details: endpoint: mean survival time, higher = longer survival
Summary of the method: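 Tumor was transplanted into mice, which were then dosed with test compound or vehicle alone. Survival was recorded for each group, and the treated figure was expressed relative to the control figure.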

[1] = dose: 100.0 mg/kg/injection, schedule: Q01DX009 (ip), vehicle: Klucel (hydroxypropylcellulose) (HPC)
[2] = dose: 200.0 mg/kg/injection, schedule: Q01DX009 (ip), vehicle: Klucel (hydroxypropylcellulose) (HPC)
[3] = dose: 400.0 mg/kg/injection, schedule: Q01DX009 (ip), vehicle: Klucel (hydroxypropylcellulose) (HPC)
[4] = dose: 100.0 mg/kg/injection, schedule: Q04DX003 (ip), vehicle: Klucel (hydroxypropylcellulose) (HPC)
[5] = dose: 200.0 mg/kg/injection, schedule: Q04DX003 (ip), vehicle: Klucel (hydroxypropylcellulose) (HPC)
[6] = dose: 12.5 mg/kg/injection, schedule: Q04DX002 (ip), vehicle: Klucel (hydroxypropylcellulose) (HPC)
[7] = dose: 25.0 mg/kg/injection, schedule: Q04DX002 (ip), vehicle: Klucel (hydroxypropylcellulose) (HPC)
[8] = dose: 50.0 mg/kg/injection, schedule: Q04DX002 (ip), vehicle: Klucel (hydroxypropylcellulose) (HPC)
[9] = dose: 100.0 mg/kg/injection, schedule: Q04DX002 (ip), vehicle: Klucel (hydroxypropylcellulose) (HPC)
[10] = dose: 200.0 mg/kg/injection, schedule: Q04DX002 (ip), vehicle: Klucel (hydroxypropylcellulose) (HPC)
[11] = dose: 400.0 mg/kg/injection, schedule: Q04DX002 (ip), vehicle: Klucel (hydroxypropylcellulose) (HPC)
[12] = dose: 100.0 mg/kg/injection, schedule: Q01DX001 (ip), vehicle: Klucel (hydroxypropylcellulose) (HPC)
[13] = dose: 200.0 mg/kg/injection, schedule: Q01DX001 (ip), vehicle: Klucel (hydroxypropylcellulose) (HPC)
[14] = dose: 400.0 mg/kg/injection, schedule: Q01DX001 (ip), vehicle: Klucel (hydroxypropylcellulose) (HPC)
[15] = dose: 400.0 mg/kg/injection, schedule: Q04DX003 (ip), vehicle: Klucel (hydroxypropylcellulose) (HPC)
[16] = dose: 100.0 mg/kg/injection, schedule: Q01DX001 (ip), vehicle: saline
[17] = dose: 200.0 mg/kg/injection, schedule: Q01DX001 (ip), vehicle: saline
[18] = dose: 400.0 mg/kg/injection, schedule: Q01DX001 (ip), vehicle: saline
[19] = dose: 100.0 mg/kg/injection, schedule: Q01DX001 (ip), vehicle: saline with Tween-80
[20] = dose: 200.0 mg/kg/injection, schedule: Q01DX001 (ip), vehicle: saline with Tween-80
[21] = dose: 400.0 mg/kg/injection, schedule: Q01DX001 (ip), vehicle: saline with Tween-80
[22] = dose: 100.0 mg/kg/injection, schedule: Q04DX003 (ip), vehicle: saline
[23] = dose: 200.0 mg/kg/injection, schedule: Q04DX003 (ip), vehicle: saline
[24] = dose: 400.0 mg/kg/injection, schedule: Q04DX003 (ip), vehicle: saline

Measured: T/C

O=C1CCCCc2ccc([N+](=O)[O-])cc21
inactive: dose: 50.0 mg/kg/injection, schedule: Q01DX001 (ip), vehicle: other 86 % of control | dose: 100.0 mg/kg/injection, schedule: Q01DX001 (ip), vehicle: other 98 % of control | dose: 200.0 mg/kg/injection, schedule: Q01DX001 (ip), vehicle: other 96 % of control | dose: 400.0 mg/kg/injection, schedule: Q01DX001 (ip), vehicle: other 88 % of control

CC(=O)N(C)c1ccc(NC(=O)Nc2ccccc2C(F)(F)F)cc1
inactive: [1] 95 % of control | [2] 93 % of control | [3] 103 % of control

OC1CCCC2CCC[N-]C12.OC1CCCC2CCC[N-]C12.[Mn+2] (stereo not drawn)
inactive: dose: 50.0 mg/kg/injection, schedule: Q04DX003 (ip), vehicle: Klucel (hydroxypropylcellulose) (HPC) 106 % of control | [4] 113 % of control | [5] 106 % of control

CC[C@H](CC[C@@H](C)[C@H]1CC[C@H]2[C@@H]3CC[C@H]4C[C@@H](O)CC[C@]4(C)[C@H]3CC[C@]12C)C(C)C
inactive: dose: 100.0 mg/kg/injection, schedule: Q01DX001 (ip), vehicle: water 90 % of control | dose: 200.0 mg/kg/injection, schedule: Q01DX001 (ip), vehicle: water 91 % of control | dose: 400.0 mg/kg/injection, schedule: Q01DX001 (ip), vehicle: water 93 % of control

CCCCCCCCCCCCCCP(I)(N(C)C)(N(C)C)N(C)C
inactive: dose: 0.78 mg/kg/injection, schedule: Q04DX002 (ip), vehicle: saline 107 % of control | dose: 1.56 mg/kg/injection, schedule: Q04DX002 (ip), vehicle: saline 113 % of control | dose: 3.13 mg/kg/injection, schedule: Q04DX002 (ip), vehicle: saline 113 % of control

CN(CCO)CC1C(c2ccccc2)C1c1ccccc1 (stereo not drawn)
inactive: [6] 97 % of control | [7] 94 % of control | [8] 90 % of control

CO/N=C(\C)CSS(=O)(=O)OC
inactive: dose: 100.0 mg/kg/injection, schedule: Q04DX002 (ip), vehicle: saline 93 % of control | dose: 200.0 mg/kg/injection, schedule: Q04DX002 (ip), vehicle: saline 96 % of control | dose: 400.0 mg/kg/injection, schedule: Q04DX002 (ip), vehicle: saline 86 % of control

O=c1nc2n(c(=O)[nH]1)CCN2
inactive: dose: 50.0 mg/kg/injection, schedule: Q01DX001 (ip), vehicle: carboxymethylcellulose (CMC) 101 % of control | dose: 100.0 mg/kg/injection, schedule: Q01DX001 (ip), vehicle: carboxymethylcellulose (CMC) 101 % of control | dose: 200.0 mg/kg/injection, schedule: Q01DX001 (ip), vehicle: carboxymethylcellulose (CMC) 104 % of control | dose: 400.0 mg/kg/injection, schedule: Q01DX001 (ip), vehicle: carboxymethylcellulose (CMC) 106 % of control

O=C(OCc1ccccc1CN1CCOCC1)c1ccc([N+](=O)[O-])cc1
inactive: [9] 105 % of control | [10] 98 % of control | [11] 98 % of control

NC(=O)C1C(c2ccccc2)C1c1ccccc1 (stereo not drawn)
inactive: [9] 97 % of control | [10] 102 % of control | [11] 94 % of control

CCC(O)CC(=O)O (stereo not drawn) (tested in a mixture with another compound)
inactive: [7] 104 % of control | [8] 101 % of control | [9] 101 % of control

COc1ccc(NC(C)=O)cc1S(=O)(=O)F
inactive: [12] 93 % of control | [4] 102 % of control | [13] 88 % of control | [5] 104 % of control | [14] 93 % of control | [15] 96 % of control

CCCCC(=O)N/N=C/c1ccc(N(C)C)cc1Cl
inactive: [16] 93 % of control | [17] 93 % of control | [18] 96 % of control

CCCCS(=O)(=O)CS(=O)(=O)CC
inactive: [19] 98 % of control | [20] 91 % of control | [21] 105 % of control

Clc1cccc(N2CCN(c3c4c(nc5ccccc35)CCCCC4)CC2)c1
inactive: [16] 93 % of control | [17] 88 % of control | [18] 90 % of control

O=c1oc(-c2ccccc2)ccc1-c1ccccc1
inactive: [4] 98 % of control | [5] 100 % of control | [15] 96 % of control

C=CC(=O)[O][Pb]([CH2]C)([CH2]C)[CH2]C
inactive: [6] 86 % of control

CNC(=O)Oc1cccc(NC(=O)OCC#CCCl)c1
inactive: [19] 92 % of control | [20] 90 % of control | [21] 90 % of control

COc1cc2c(c(OC)c1OC)-c1ccc(SCC3CCC4CC3C4(C)C)c(=O)cc1C(NC(C)=O)CC2 (stereo not drawn)
inactive: dose: 12.5 mg/kg/injection, schedule: Q04DX002 (ip), vehicle: saline 100 % of control | dose: 25.0 mg/kg/injection, schedule: Q04DX002 (ip), vehicle: saline 95 % of control | dose: 50.0 mg/kg/injection, schedule: Q04DX002 (ip), vehicle: saline 106 % of control

O=C(O)c1ccc(OCc2ccccc2)c(Br)c1
inactive: [19] 97 % of control | [20] 104 % of control | [21] 98 % of control

COc1ccccc1NNS(=O)(=O)c1cccc([N+](=O)[O-])c1
inactive: dose: 75.0 mg/kg/injection, schedule: Q04DX003 (ip), vehicle: Klucel (hydroxypropylcellulose) (HPC) 104 % of control | [12] 100 % of control | dose: 150.0 mg/kg/injection, schedule: Q04DX003 (ip), vehicle: Klucel (hydroxypropylcellulose) (HPC) 94 % of control | [13] 103 % of control | dose: 300.0 mg/kg/injection, schedule: Q04DX003 (ip), vehicle: Klucel (hydroxypropylcellulose) (HPC) 104 % of control | [14] 105 % of control

O=C(O)c1cccc2c1C(Br)C(Br)c1ccccc1-2 (stereo not drawn)
inactive: [22] 94 % of control | [23] 94 % of control | [24] 92 % of control

COc1cc(CC2Cc3cccc(=O)c(O)c3C(=O)O2)cc(OC)c1OC (stereo not drawn)
inactive: dose: 100.0 mg/kg/injection, schedule: Q04DX003 (ip), vehicle: saline with Tween-80 90 % of control | dose: 200.0 mg/kg/injection, schedule: Q04DX003 (ip), vehicle: saline with Tween-80 95 % of control | dose: 400.0 mg/kg/injection, schedule: Q04DX003 (ip), vehicle: saline with Tween-80 92 % of control

CN(C)C(=S)SCC(=O)O
inactive: dose: 100.0 mg/kg/injection, schedule: Q04DX002 (ip), vehicle: saline with Tween-80 100 % of control | dose: 200.0 mg/kg/injection, schedule: Q04DX002 (ip), vehicle: saline with Tween-80 96 % of control | dose: 400.0 mg/kg/injection, schedule: Q04DX002 (ip), vehicle: saline with Tween-80 100 % of control

NNC(=O)c1ccc(NC(=S)Nc2ccccc2)cc1
inactive: [1] 93 % of control | [2] 93 % of control | [3] 104 % of control

S=c1nc[nH]c2nc(N=Nc3cc(Cl)ccc3Cl)[nH]c12
inactive: [16] 101 % of control | [17] 97 % of control

CC(=O)Nc1ccn(CC(=O)c2cccs2)c(=O)n1
inactive: dose: 100.0 mg/kg/injection, schedule: Q01DX009 (ip), vehicle: saline 96 % of control | [22] 95 % of control | dose: 200.0 mg/kg/injection, schedule: Q01DX009 (ip), vehicle: saline 94 % of control | [23] 101 % of control | dose: 400.0 mg/kg/injection, schedule: Q01DX009 (ip), vehicle: saline 89 % of control | [24] 110 % of control

O=S(=O)(O)F
inactive: dose: 50.0 mg/kg/injection, schedule: Q04DX003 (ip), vehicle: saline 96 % of control | [16] 94 % of control | [22] 89 % of control | [17] 94 % of control | [23] 96 % of control

O=[N+]([O-])c1cccc(P(=O)(O)O)c1
inactive: dose: 50.0 mg/kg/injection, schedule: Q01DX001 (ip), vehicle: saline 115 % of control | [16] 107 % of control | [17] 97 % of control | [18] 103 % of control
